Some results are limits rather than exact numbers.

T1 sequence (Q8IYL9 whole entry): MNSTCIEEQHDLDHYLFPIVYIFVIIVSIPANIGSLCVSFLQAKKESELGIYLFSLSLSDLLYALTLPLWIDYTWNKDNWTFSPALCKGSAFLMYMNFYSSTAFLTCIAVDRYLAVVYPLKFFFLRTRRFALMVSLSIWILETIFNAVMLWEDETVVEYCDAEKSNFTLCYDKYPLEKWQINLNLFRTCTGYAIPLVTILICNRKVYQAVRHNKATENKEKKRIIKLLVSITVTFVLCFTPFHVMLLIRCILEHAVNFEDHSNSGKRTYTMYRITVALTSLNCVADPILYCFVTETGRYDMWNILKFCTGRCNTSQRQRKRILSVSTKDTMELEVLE

The first test concerns the target T1, human recombinant GPR65 (Homo sapiens, UniProt Q8IYL9).
T1 construct: host or cells: 1321N1 human astrocytoma cells (1321N1-hrGPR65)
As to the kind of experiment: Human GPR65 cAMP HTRF antagonist assay.
Conditions: not given
The test is classed as cell-based. The procedure, abridged: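 1321N1 astrocytoma cells stably expressing GPR65 were preincubated with compound for 30 min at room temperature in KRH pH 7.6 with 1 mM IBMX and 200 μM EDTA. They were then stimulated at assay pH 7.2 for 30 min, with controls at pH 7.9. cAMP was read by HTRF (665/620 nm), normalised to controls and fitted by 4-parameter logistic to give IC50.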
For orientation: Time-resolved FRET reads energy transfer from a long-lived donor to a nearby acceptor.
Take `O=C(Nc1cccc(C(F)(F)F)c1)N1C2CCC1c1ccnc(F)c1C2` (racemic) [Compound 156, (±)-1-Fluoro-N-(3-(trifluoromethyl)phenyl)-6,7,8,9-tetrahydro-5H-5,8-epiminocyclohepta[c]pyridine-10-carboxamide]: the IC50 (in general, the concentration needed to halve the response being measured) is below 500 nM. Consider `O=C(Nc1ccc(OC(F)(F)F)cc1)N1C2CCC1c1ccnc(F)c1C2` (racemic) [Compound 157, (±)-1-Fluoro-N-(4-(trifluoromethoxy)phenyl)-6,7,8,9-tetrahydro-5H-5,8-epiminocyclohepta[c]pyridin-10-carboxamide], for which the IC50 is below 500 nM. For `O=C(Nc1ccc(-c2ccccc2)cc1)N1C2CCC1c1ccnc(F)c1C2` (racemic) [Compound 158, (±)-N-([1,1′-Biphenyl]-4-yl)-1-fluoro-6,7,8,9-tetrahydro-5H-5,8-epiminocyclohepta[c]pyridine-10-carboxamide], the IC50 is below 500 nM. As to `Cc1ccc(NC(=O)N2C3CCC2c2ccnc(F)c2C3)cc1C(F)(F)F` (racemic) [Compound 160, (±)-1-Fluoro-N-(4-methyl-3-(trifluoromethyl)phenyl)-6,7,8,9-tetrahydro-5H-5,8-epiminocyclohepta[c]pyridine-10-carboxamide], the half-inhibitory concentration (IC50) is below 500 nM. Still for that read-out and setting: to `N#Cc1ccc(NC(=O)N2C3CCC2c2ccnc(F)c2C3)cc1C(F)(F)F` (racemic) [Compound 163, (±)-N-(4-Cyano-3-(trifluoromethyl)phenyl)-1-fluoro-6,7,8,9-tetrahydro-5H-5,8-epiminocyclohepta[c]pyridine-10-carboxamide] belongs below 500 nM; to `O=C(Nc1cc(Cl)cc(C(F)(F)F)c1)N1C2CCC1c1ccnc(F)c1C2` (racemic) [Compound 164, (±)-N-(3-Chloro-5-(trifluoromethyl)phenyl)-1-fluoro-6,7,8,9-tetrahydro-5H-5,8-epiminocyclohepta[c]pyridine-10-carboxamide], below 500 nM; to `O=C(Nc1cc(Cl)c(Cl)c(Cl)c1)N1C2CCC1c1ccnc(F)c1C2` (racemic) [Compound 166, (±)-1-Fluoro-N-(3,4,5-trichlorophenyl)-6,7,8,9-tetrahydro-5H-5,8-epiminocyclohepta[c]pyridine-10-carboxamide], below 500 nM.

Regarding `Cc1cc(NC(=O)N2C3CCC2c2ccnc(F)c2C3)ccc1C(F)(F)F` (racemic) [Compound 167, (±)-1-Fluoro-N-(3-methyl-4-(trifluoromethyl)phenyl)-6,7,8,9-tetrahydro-5H-5,8-epiminocyclohepta[c]pyridine-10-carboxamide], the IC50 is below 500 nM. On the same count and under the same terms, to `O=C(Nc1ccc(Br)cc1)N1C2CCC1c1ccnc(F)c1C2` (racemic) [Compound 168, (±)-N-(4-Bromophenyl)-1-fluoro-6,7,8,9-tetrahydro-5H-5,8-epiminocyclohepta[c]pyridine-10-carboxamide] belongs below 500 nM. With `O=C(Nc1cccc(Br)c1)N1C2CCC1c1ccnc(F)c1C2` (racemic) [Compound 170, (±)-N-(3-Bromophenyl)-1-fluoro-6,7,8,9-tetrahydro-5H-5,8-epiminocyclohepta[c]pyridine-10-carboxamide], the IC50 was below 500 nM. Turning to `O=C(Nc1cccc(OC(F)(F)F)c1)N1C2CCC1c1ccnc(F)c1C2` (racemic) [Compound 171, (±)-1-Fluoro-N-(3-(trifluoromethoxy)phenyl)-6,7,8,9-tetrahydro-5H-5,8-epiminocyclohepta[c]pyridine-10-carboxamide], the half-inhibitory concentration (IC50) was below 500 nM.

With `O=C(Nc1ccc(F)c(Br)c1)N1C2CCC1c1ccnc(F)c1C2` (racemic) [Compound 172, (±)-N-(3-Bromo-4-fluorophenyl)-1-fluoro-6,7,8,9-tetrahydro-5H-5,8-epiminocyclohepta[c]pyridine-10-carboxamide], the IC50 was below 500 nM. Take `O=C(Nc1cc(Cl)ccc1F)N1C2CCC1c1ccnc(F)c1C2` (racemic) [Compound 174, (±)-N-(5-Chloro-2-fluorophenyl)-1-fluoro-6,7,8,9-tetrahydro-5H-5,8-epiminocyclohepta[c]pyridine-10-carboxamide]: the IC50 is below 500 nM.

Regarding `O=C(Nc1ccc(Cl)cc1F)N1C2CCC1c1ccnc(F)c1C2` (racemic) [Compound 177, (±)-N-(4-Chloro-2-fluorophenyl)-1-fluoro-6,7,8,9-tetrahydro-5H-5,8-epiminocyclohepta[c]pyridine-10-carboxamide], the IC50 was below 500 nM. The same measure, in the same setting: the figure for `O=C(Nc1ccc(F)c(Cl)c1)N1C2CCC1c1ccnc(F)c1C2` (racemic) [Compound 178, (±)-N-(3-Chloro-4-fluorophenyl)-1-fluoro-6,7,8,9-tetrahydro-5H-5,8-epiminocyclohepta[c]pyridine-10-carboxamide] is below 500 nM; for `O=C(Nc1cc(Cl)c(Cl)cc1F)N1C2CCC1c1ccc(F)nc1C2` (racemic) [Compound 181, (±)-N-(4,5-Dichloro-2-fluorophenyl)-2-fluoro-6,7,8,9-tetrahydro-5H-5,8-epiminocyclohepta[b]pyridine-10-carboxamide] it is below 500 nM; for `O=C(Nc1cc(Cl)c(C(F)(F)F)cc1F)N1C2CCC1c1ccc(F)nc1C2` (racemic) [Compound 182, (±)-N-(5-Chloro-2-fluoro-4-(trifluoromethyl)phenyl)-2-fluoro-6,7,8,9-tetrahydro-5H-5,8-epiminocyclohepta[b]pyridine-10-carboxamide] it is below 500 nM. As to `O=C(Nc1cc(Cl)c(C(F)(F)F)cc1F)N1C2CCC1c1ccc(=O)[nH]c1C2` (racemic) [Compound 189, (±)-N-(5-Chloro-2-fluoro-4-(trifluoromethyl)phenyl)-2-oxo-2,5,6,7,8,9-hexahydro-1H-5,8-epiminocyclohepta[b]pyridine-10-carboxamide], the IC50 is below 500 nM.

Still in this test, the particulars now being: 1321N1-hrGPR65 cells, assay pH 7.2, cAMP HTRF; read-out: hGPR65 IC50 (activity class).
In the case of `O=C(Nc1ccc(Cl)c(Cl)c1)N1C2CCC1c1ccnc(Br)c1C2` (racemic) [Compound 148, (±)-1-Bromo-N-(3,4-dichlorophenyl)-6,7,8,9-tetrahydro-5H-5,8-epiminocyclohepta[c]pyridine-10-carboxamide], the IC50 was in the range of 500 to 5000 nM. As to `COc1cc(NC(=O)N2C3CCC2c2ccnc(F)c2C3)ccc1-c1cnco1` (racemic) [Compound 152, (±)-1-Fluoro-N-(3-methoxy-4-(oxazol-5-yl)phenyl)-6,7,8,9-tetrahydro-5H-5,8-epiminocyclohepta[c]pyridine-10-carboxamide], the IC50 lay within 500 to 5000 nM. Same read-out and setting: to `O=C(Nc1ccc(F)c(Cl)c1F)N1C2CCC1c1ccnc(F)c1C2` (racemic) [Compound 154, (±)-N-(3-Chloro-2,4-difluorophenyl)-1-fluoro-6,7,8,9-tetrahydro-5H-5,8-epiminocyclohepta[c]pyridine-10-carboxamide] belongs 500 to 5000 nM.

For `O=C(Nc1cccc(F)c1)N1C2CCC1c1ccnc(F)c1C2` (racemic) [Compound 155, (±)-1-Fluoro-N-(3-fluorophenyl)-6,7,8,9-tetrahydro-5H-5,8-epiminocyclohepta[c]pyridine-10-carboxamide], the IC50 is 500 to 5000 nM. Take `O=C(Nc1cc(C(F)(F)F)cc(C(F)(F)F)c1)N1C2CCC1c1ccnc(F)c1C2` (racemic) [Compound 159, (±)-N-(3,5-Bis(trifluoromethyl)phenyl)-1-fluoro-6,7,8,9-tetrahydro-5H-5,8-epiminocyclohepta[c]pyridine-10-carboxamide]: the IC50 was 500 to 5000 nM.

Turning to `O=C(Nc1cccc(Cl)c1Cl)N1C2CCC1c1ccnc(F)c1C2` (racemic) [Compound 161, (±)-N-(2,3-Dichlorophenyl)-1-fluoro-6,7,8,9-tetrahydro-5H-5,8-epiminocyclohepta[c]pyridine-10-carboxamide], the IC50 was in the range of 500 to 5000 nM. Same read-out and setting: to `O=C(Nc1ccc(F)cc1F)N1C2CCC1c1ccnc(F)c1C2` (racemic) [Compound 162, (±)-N-(2,4-Difluorophenyl)-1-fluoro-6,7,8,9-tetrahydro-5H-5,8-epiminocyclohepta[c]pyridin-10-carboxamide] belongs 500 to 5000 nM. Same read-out and setting: the figure for `N#Cc1cc(NC(=O)N2C3CCC2c2ccnc(F)c2C3)ccc1F` (racemic) [Compound 165, (±)-N-(3-Cyano-4-fluorophenyl)-1-fluoro-6,7,8,9-tetrahydro-5H-5,8-epiminocyclohepta[c]pyridine-10-carboxamide] is 500 to 5000 nM. With `O=C(Nc1ccc(OC(F)F)cc1)N1C2CCC1c1ccnc(F)c1C2` (racemic) [Compound 169, (±)-N-(4-(Difluoromethoxy)phenyl)-1-fluoro-6,7,8,9-tetrahydro-5H-5,8-epiminocyclohepta[c]pyridine-10-carboxamide], the IC50 is 500 to 5000 nM. On the same count and under the same terms, the figure for `O=C(Nc1cc(F)cc(F)c1)N1C2CCC1c1ccnc(F)c1C2` (racemic) [Compound 173, (±)-N-(3,5-Difluorophenyl)-1-fluoro-6,7,8,9-tetrahydro-5H-5,8-epiminocyclohepta[c]pyridine-10-carboxamide] is 500 to 5000 nM. Consider `O=C(Nc1ccc(F)c(F)c1F)N1C2CCC1c1ccnc(F)c1C2` (racemic) [Compound 175, (±)-1-Fluoro-N-(2,3,4-trifluorophenyl)-6,7,8,9-tetrahydro-5H-5,8-epiminocyclohepta[c]pyridin-10-carboxamide], for which the IC50 is 500 to 5000 nM. As for `N#Cc1ccc(NC(=O)N2C3CCC2c2ccnc(F)c2C3)cc1` (racemic) [Compound 176, (±)-N-(4-Cyanophenyl)-1-fluoro-6,7,8,9-tetrahydro-5H-5,8-epiminocyclohepta[c]pyridine-10-carboxamide], the IC50 was in the range of 500 to 5000 nM. As to `O=C(Nc1cc(Cl)c(Cl)cc1F)N1C2CCC1c1cnncc1C2` (racemic) [Compound 193, (±)-N-(4,5-Dichloro-2-fluorophenyl)-6,7,8,9-tetrahydro-5H-5,8-epiminocyclohepta[d]pyridazine-10-carboxamide], the IC50 was in the range of 500 to 5000 nM.

For the origin of these results see patent publication US20230373989A1, “N-PHENYLAMINOCARBONYL PYRIDINO-, PYRIMIDINO AND BENZO-TROPANES AS MODULATORS OF GPR65” (PATHIOS THERAPEUTICS LIMITED, priority 2020, published 2023).
